Series [1] in a line: Cellular toxicity assay in PBM cells. Type of series: cell-based. The conditions noted are these: human, read-out: Cytotoxicity, CC50 (μM) PBM. As for the experimental part: (§1) The toxicity of the compounds was assessed in Vero, human PBM, CEM (human lymphoblastoid), MT-2, and HepG2 cells, as described previously (see Schinazi R. F., Sommadossi J.-P., Saalmann V., Cannon D. L., Xie M.-Y., Hart G. C., Smith G. A. & Hahn E. F. Antimicrob. Agents Chemother. 1990, 34, 1061-67). Cycloheximide was included as positive cytotoxic control, and untreated cells exposed to solvent were included as negative controls. The cytotoxicity CC50 was obtained from the concentration-response curve using the median effective method described previously (see Chou T.-C. & Talalay P. Adv. Enzyme Regul. 1984, 22, 27-55; Belen'kii M. S. & Schinazi R. F. Antiviral Res. 1994, 25, 1-11).

Series [2] in a line: Cellular toxicity assay in Vero cells. Type of series: cell-based. Particulars: African green monkey, read-out: Cytotoxicity, CC50 (μM) VERO. The method, then:
as §1

The nature of series [3]: Cellular toxicity assay in CEM cells. It is filed as cell-based. The conditions noted are these: human, read-out: Cytotoxicity, CC50 (μM) CEM. The method, then: as §1
Series [4] concerns the target Norovirus GI.1 (Norwalk virus) protease (Norovirus (strain Human/NoV/United States/Norwalk/1968/GI) (Hu/NV/NV/1968/US), UniProt Q83883). Description: FRET based enzyme assay, Norovirus GI.1 protease. It is filed as biochemical. The conditions noted are these: 37° C. As for the experimental part: Norovirus GI.1 (Norwalk virus) protease were tested for enzymatic activity using a fluorescence resonance energy transfer (FRET) based enzyme assay. Norovirus GI.1 represents 5 to 10% of the clinical isolates. The FRET kinetic enzyme assays were performed as follows. The purified viral protease was diluted in reaction buffer (50 mM HEPES, pH 8.0, 120 mM NaCl, 0.4 mM EDTA, 20% glycerol, and 4 mM DTT) to a final concentration of 128 nM. Each reaction was initiated by addition of FRET substrate [(HiLyte Fluor 488) -[…]-(QXL520)]. To determine kinetic parameters, the FRET substrate was serially diluted to final concentrations of 100 μM to 49 nM and added to the reaction. The final reaction volume was 100 μL. The fluorescence emitted by substrate cleavage was monitored by a microplate reader (SpectraMax M5, Molecular Devices, Sunnyvale, CA, USA) at a 488 nm excitation wavelength with an emission wavelength of 520 nm. Readings were taken every minute for 20 minutes, and the reactions were performed at 37° C. In order to convert RFU into μM, a standard curve was created by measuring fluorescence of free HiLyte Fluor 488, which was serially diluted from 250 nM to 3.9 nM. All data were plotted and analyzed with GraphPad Prism v. 6.07.

Series [5] relates to NoV replicon RNA in HG23 cells (derived from Huh-7 cells). Description: Norwalk virus replicon assay in HG23 cells. Type of series: cell-based. Particulars: 120 h, five days incubation; for EC50: read-out: Anti-NoV activity (μM) EC50; for EC90: read-out: Anti-NoV activity (μM) EC90. As for the experimental part: Norwalk virus replicon assays were performed as reported by Constantini et al. (Antivir Ther 2012, 17, 981-991). HG23 cells (derived from Huh-7 cells) containing NoV replicon RNA are seeded at a density of 3,000 cells/well in 96-well plates and incubated at 37° C. and 5% CO2 overnight. Compounds were tested at concentrations ranging from 0.1 to 100 μM. Compounds were added in triplicate to 80 to 90% confluent monolayers and incubated at 37° C. and 5% CO2. Untreated cells were included in each plate. Following five days incubation (37° C., 5% CO2), total cellular RNA was isolated with RNeasy96 extraction kit from Qiagen. Replicon RNA and an internal control (TaqMan rRNA control reagents, Applied Biosystems) were amplified in a single step.
The median effective concentrations (EC50) ranges of several of the compounds described herein against NoV are shown in Table 3: […]

A further series deals with Minerva virus protease (Norovirus GII.4 (Minerva virus), UniProt P54634). In words: FRET enzyme kinetic assay, NoV GII.4 Minerva virus protease. Type of series: biochemical. Particulars: Minerva virus (GII.4) protease; inhibitor incubated with enzyme 90 minutes at 37° C. before FRET substrate. As for the experimental part:
The ability of these compounds to inhibit the NoV, specifically Minerva virus protease catalytic Cys139 covalently (IC50 and Ki) was determined with an enzyme kinetic assay. NoV strains, specifically GII.4 such as the Minerva virus are responsible for causing the majority (˜80%) of infections in humans. The activity of the inhibitors was evaluated by monitoring the cleavage of a FRET substrate every one minute for 20 minutes (excitation/emission: 488/520 nm) using a SpectraMax M5 microplate reader (Molecular Devices, Sunnyvale CA). Serial dilutions of each inhibitor were incubated with enzyme for 90 minutes at 37° C. before addition of the FRET substrate to ensure complete inactivation. Commercially available protease inhibitors chymostatin and rupintrivir were used as controls.

Series [6] in a line: Cellular toxicity assay in Huh7 cells. Type of series: cell-based. The conditions noted are these: human, read-out: Cytotoxicity, CC50 (μM) Huh7. The method, then: [The procedure below names another cell line; the source lists this cell line under the same test.] as §1

Chain of Norovirus GI.1 (Norwalk virus) protease (Q83883 1101-1281): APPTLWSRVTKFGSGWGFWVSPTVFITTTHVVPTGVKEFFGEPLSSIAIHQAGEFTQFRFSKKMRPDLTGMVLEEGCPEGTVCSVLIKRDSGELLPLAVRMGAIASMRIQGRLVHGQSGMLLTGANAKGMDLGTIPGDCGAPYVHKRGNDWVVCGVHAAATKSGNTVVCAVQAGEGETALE
Chain of Minerva virus protease (P54634 whole entry, looked up): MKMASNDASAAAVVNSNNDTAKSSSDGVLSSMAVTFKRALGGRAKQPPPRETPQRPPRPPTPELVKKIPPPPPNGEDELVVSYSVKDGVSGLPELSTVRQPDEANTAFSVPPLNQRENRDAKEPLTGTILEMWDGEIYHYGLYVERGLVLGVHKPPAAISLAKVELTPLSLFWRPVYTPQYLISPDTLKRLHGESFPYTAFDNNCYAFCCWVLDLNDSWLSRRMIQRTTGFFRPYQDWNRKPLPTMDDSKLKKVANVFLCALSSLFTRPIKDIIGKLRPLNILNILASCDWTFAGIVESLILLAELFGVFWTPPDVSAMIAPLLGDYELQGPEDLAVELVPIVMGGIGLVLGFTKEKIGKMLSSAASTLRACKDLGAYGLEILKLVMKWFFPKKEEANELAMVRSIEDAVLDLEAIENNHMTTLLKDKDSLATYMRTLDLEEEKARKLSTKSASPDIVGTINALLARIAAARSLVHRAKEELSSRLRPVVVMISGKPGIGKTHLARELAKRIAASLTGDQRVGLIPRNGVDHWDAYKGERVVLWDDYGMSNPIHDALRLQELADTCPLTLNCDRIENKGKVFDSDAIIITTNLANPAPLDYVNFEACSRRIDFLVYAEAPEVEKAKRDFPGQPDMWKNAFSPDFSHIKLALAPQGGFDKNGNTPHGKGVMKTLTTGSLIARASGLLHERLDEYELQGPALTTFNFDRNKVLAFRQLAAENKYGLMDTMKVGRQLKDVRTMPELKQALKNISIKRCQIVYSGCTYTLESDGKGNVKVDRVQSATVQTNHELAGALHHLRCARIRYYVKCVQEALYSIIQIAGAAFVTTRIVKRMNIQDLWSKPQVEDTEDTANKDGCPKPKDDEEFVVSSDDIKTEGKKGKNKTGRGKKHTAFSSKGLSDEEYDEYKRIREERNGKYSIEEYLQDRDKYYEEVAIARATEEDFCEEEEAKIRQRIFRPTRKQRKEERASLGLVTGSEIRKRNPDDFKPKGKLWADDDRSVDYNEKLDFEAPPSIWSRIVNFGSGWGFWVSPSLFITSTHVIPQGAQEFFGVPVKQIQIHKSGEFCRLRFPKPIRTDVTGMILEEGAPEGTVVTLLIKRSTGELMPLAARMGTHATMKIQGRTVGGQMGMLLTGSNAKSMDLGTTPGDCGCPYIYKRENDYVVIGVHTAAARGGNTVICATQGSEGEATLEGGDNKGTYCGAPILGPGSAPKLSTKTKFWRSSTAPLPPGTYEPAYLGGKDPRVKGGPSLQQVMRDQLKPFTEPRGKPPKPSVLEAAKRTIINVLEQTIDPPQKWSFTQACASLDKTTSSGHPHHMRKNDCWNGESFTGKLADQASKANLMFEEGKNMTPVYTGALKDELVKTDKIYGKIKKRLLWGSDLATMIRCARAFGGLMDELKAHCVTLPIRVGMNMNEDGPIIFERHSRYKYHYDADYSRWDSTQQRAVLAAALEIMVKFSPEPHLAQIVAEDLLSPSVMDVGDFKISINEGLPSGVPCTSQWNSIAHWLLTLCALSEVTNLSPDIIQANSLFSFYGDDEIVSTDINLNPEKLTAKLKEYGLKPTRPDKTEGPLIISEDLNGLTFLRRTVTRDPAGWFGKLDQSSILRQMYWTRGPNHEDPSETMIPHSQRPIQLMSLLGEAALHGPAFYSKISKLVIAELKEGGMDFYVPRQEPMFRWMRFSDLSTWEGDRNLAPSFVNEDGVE

On to `CC(C)C[C@H](NC(=O)[C@H](Cc1cccc2ccccc12)NC(=O)OCc1ccccc1)C(=O)N[C@@H](C[C@@H]1CCNC1=O)C1OC1S(C)(=O)=O` (stereo partly drawn) [Compound 67, Benzyl ((2S)-1-(((2S)-4-methyl-1-(((1S)-1-(3-(methylsulfonyl)oxiran-2-yl)-2-((S)-2-oxopyrrolidin-3-yl)ethyl)amino)-1-oxopentan-2-yl)amino)-3-(naphthalen-1-yl)-1-oxopropan-2-yl)carbamate], for which the CC50 in series [1] is greater than 100 µM; in series [2] it was greater than 100 µM; in series [3] it was 64 µM. For the same compound, the IC50 in series [4] was greater than 10 µM. In series [5], the EC50 came out at 4.33 µM. The 90% effect concentration (EC90) in series [5] was greater than 20 µM.

On to `CC(C)C[C@H](NC(=O)[C@H](Cc1cccc2ccccc12)NC(=O)OCc1ccccc1)C(=O)N[C@H](/C=C(\C#N)C(N)=O)C[C@@H]1CCCNC1=O` [Compound 36, Benzyl ((S)-1-(((S)-1-(((S,E)-5-amino-4-cyano-5-oxo-1-((S)-2-oxopiperidin-3-yl)pent-3-en-2-yl)amino)-4-methyl-1-oxopentan-2-yl)amino)-3-(naphthalen-1-yl)-1-oxopropan-2-yl)carbamate], for which the IC50 against Minerva virus protease is 1.17 ± 0.333 µM; in series [4], 0.593 ± 0.124 µM. For the same compound, the CC50 in series [6] is 8 µM; in series [1], 45 µM; in series [2], greater than 100 µM; in series [3], 9 µM. This compound also gave a Ki in series [4] of 1.7 ± 0.332 µM.

`CC(C)C[C@H](NC(=O)[C@H](Cc1cccc2ccccc12)NC(=O)c1cnccn1)C(=O)N[C@H](C=O)C[C@@H]1CCCNC1=O` [Compound 23]: the CC50 was greater than 10 µM in series [6], greater than 100 µM in series [1], greater than 100 µM in series [2] and 39 µM in series [3]. The EC50 in series [5] worked out at 0.07 µM. The EC90 in series [5] is 0.33 µM.

For the compound `CC(C)C[C@H](NC(=O)[C@H](Cc1cccc2ccccc12)NC(=O)OCc1ccccc1)C(=O)N[C@H](/C=C/C=O)C[C@@H]1CCNC1=O` [Compound 64, Benzyl ((S)-1-(((S)-4-methyl-1-oxo-1-(((S,E)-5-oxo-1-((S)-2-oxopyrrolidin-3-yl)pent-3-en-2-yl)amino)pentan-2-yl)amino)-3-(naphthalen-1-yl)-1-oxopropan-2-yl)carbamate], in series [4], half-maximal inhibition (IC50) was put at 10 µM.

For `CC(C)C[C@H](NC(=O)[C@H](Cc1ccc(O)cc1)NC(=O)OCc1ccccc1)C(=O)N[C@H](C=O)C[C@@H]1CCCNC1=O` [Compound 11, Benzyl ((S)-3-(4-hydroxyphenyl)-1-(((S)-4-methyl-1-oxo-1-(((S)-1-oxo-3-((S)-2-oxopiperidin-3-yl)propan-2-yl)amino)pentan-2-v)amino)-1-oxopropan-2-yl)carbamate], the CC50 in series [6] is greater than 10 µM; in series [1] it was greater than 100 µM; in series [2], greater than 100 µM; in series [3], greater than 100 µM. In series [5], the EC50 was determined as 0.7 µM. For the same compound, the EC90 in series [5] came to 2.4 µM.

Take `CC(C)C[C@H](NC(=O)[C@H](Cc1ccc(F)cc1)NC(=O)OCc1ccccc1)C(=O)N[C@H](C=O)C[C@@H]1CCCNC1=O` [Compound 35, Benzyl ((S)-3-(4-fluorophenyl)-1-(((S)-4-methyl-1-oxo-1-(((S)-1-oxo-3-((S)-2-oxopiperidin-3-yl)propan-2-yl)amino)pentan-2-yl)amino)-1-oxopropan-2-yl)carbamate]: the CC50 in series [6] was 60 µM; in series [1], 52 µM; in series [2], greater than 100 µM; in series [3] (CEM lymphoblastoid cells), 35 µM. The same compound returned an IC50 in series [4] of 0.096 ± 0.011 µM. This compound also had a Ki in series [4] of 0.465 ± 0.201 µM.

`CC(C)C[C@H](NC(=O)[C@H](Cc1cccc2ccccc12)NC(=O)OCc1ccccc1)C(=O)N[C@@H](C[C@@H]1CCCNC1=O)C(O)C(F)(F)F` (stereo partly drawn) [Compound 38, Benzyl ((2S)-1-(((2S)-4-methyl-1-oxo-1-(((2S)-4,4,4-trifluoro-3-hydroxy-1-((S)-2-oxopiperidin-3-yl)butan-2-yl)amino)pentan-2-yl)amino)-3-(naphthalen-1-yl)-1-oxopropan-2-yl)carbamate]: the CC50 in series [6] was determined as 13 µM; in series [1], 18 µM; in series [2], 22 µM; in series [3] (CEM lymphoblastoid cells), 6 µM. For the same compound, in series [4], the IC50 is greater than 10 µM.

For `CC(C)C[C@H](NC(=O)[C@H](Cc1cccc2ccccc12)NC(=O)OCc1ccccc1)C(=O)N[C@@H](C[C@@H]1CCCNC1=O)C(=O)C(F)(F)F` [Compound 39, Benzyl ((S)-1-(((S)-4-methyl-1-oxo-1-(((S)-4,4,4-trifluoro-3-oxo-1-((S)-2-oxopiperidin-3-yl)butan-2-yl)amino)pentan-2-yl)amino)-3-(naphthalen-1-yl)-1-oxopropan-2-yl)carbamate], the half-maximal cytotoxic concentration (CC50) in series [6] was 14 µM; in series [1] it was 39 µM; in series [2], 11 µM; in series [3] it was 2 µM. The half-inhibitory concentration (IC50) in series [4] was greater than 10 µM.

As for `O=C[C@H](C[C@@H]1CCCNC1=O)NC(=O)[C@H](Cc1ccccc1)NC(=O)[C@H](Cc1cccc2ccccc12)NC(=O)OCc1ccccc1` [Compound 83, Benzyl ((S)-3-(naphthalen-1-yl)-1-oxo-1-(((S)-1-oxo-1-(((S)-1-oxo-3-((S)-2-oxopiperidin-3-yl)propan-2-yl)amino)-3-phenylpropan-2-yl)amino)propan-2-yl)carbamate], the CC50 in series [1] is 48.7 µM. In addition, the CC50 in series [2] turned out to be 41.2 µM. Further, in series [3] (CEM lymphoblastoid cells), the CC50 worked out at 17 µM. In addition, in series [4], the IC50 stood at 0.084 ± 0.019 µM and the Ki was found to be 0.256 ± 0.057 µM. Besides, in series [5], the EC50 turned out to be 0.33 µM and the EC90 turned out to be 0.91 µM.

In the case of `CC(C)C[C@H](NC(=O)[C@H](Cc1cccc2ccccc12)NC(=O)c1cnccn1)C(=O)N[C@H](C=O)C[C@@H]1CCNC1=O` [Compound 29], the CC50 in series [6] is greater than 10 µM; in series [1], greater than 100 µM; in series [2] it was greater than 100 µM; in series [3], 38 µM. Moreover, the EC50 in series [5] is 0.08 µM. Also, in series [5], the EC90 is 0.46 µM.

Consider `O=C(N[C@@H](Cc1cccc2ccccc12)C(=O)N[C@@H](Cc1ccccc1)C(=O)N[C@H](CCl)C[C@@H]1CCCNC1=O)OCc1ccccc1` [Compound 84, Benzyl ((S)-1-(((S)-1-(((S)-1-chloro-3-((S)-2-oxopiperidin-3-yl)propan-2-yl)amino)-1-oxo-3-phenylpropan-2-yl)amino)-3-(naphthalen-1-yl)-1-oxopropan-2-yl)carbamate], for which the CC50 in series [1] is 75 µM; in series [2], 51.7 µM; in series [3] (CEM lymphoblastoid cells) it was 26.6 µM. The compound further displayed an IC50 in series [4] greater than 100 µM. Moreover, the EC50 in series [5] is greater than 10 µM.

Turning to `CC(C)C[C@H](NC(=O)[C@H](Cc1cccc2ccccc12)NC(=O)OCc1ccccc1)C(=O)N[C@H](C=O)C[C@@H]1CCCNC1=O` [Compound 19], the CC50 was greater than 10 µM in series [6], 24 µM in series [1], 20 µM in series [2] and 32 µM in series [3]. Also, the EC50 in series [5] was 0.07 µM. Besides, in series [5], the EC90 was determined as 0.27 µM.
